Assay results taken from ChEMBL document CHEMBL4118196, “Design and synthesis of a series of bioavailable fatty acid synthase (FASN) KR domain inhibitors for cancer therapy” (Bioorg Med Chem Lett, 2018).

Tests used:
A2780 [1] = test: Antiproliferative activity against human A2780 cells in culture medium with 10% lipid-reduced serum after 4 days by MTT assay; assay type: functional, cell-based; settings: A2780, 96 h
K562 [2] = test: Antiproliferative activity against human K562 cells in culture medium with 10% lipid-reduced serum after 4 days by ATP-Glo assay; assay type: functional, cell-based; settings: K562, 96 h
PC-3M = test: Antiproliferative activity against human PC3M cells in culture medium with 10% lipid-reduced serum after 4 days by ATP-Glo assay; assay type: functional, cell-based; settings: 96 h
LNCaP = test: Antiproliferative activity against human LNCAP cells in culture medium with 10% lipid-reduced serum after 4 days by ATP-Glo assay; assay type: functional, cell-based; settings: 96 h
OCI-Ly1 [3] = test: Antiproliferative activity against human OCI-LY1 cells in culture medium with 10% lipid-reduced serum after 4 days by ATP-Glo assay; assay type: functional, cell-based; settings: OCI-Ly1, 96 h
HL-60 [4] = test: Antiproliferative activity against human HL60 cells in culture medium with 10% lipid-reduced serum after 4 days by ATP-Glo assay; assay type: functional, cell-based; settings: HL-60, 96 h
U2932 [5] = test: Antiproliferative activity against human U2932 cells in culture medium with 10% lipid-reduced serum after 4 days by ATP-Glo assay; assay type: functional, cell-based; settings: U2932, 96 h
[6] = Antiproliferative activity against human MM1R cells in culture medium with 10% lipid-reduced serum after 4 days by ATP-Glo assay; assay type: functional, cell-based; settings: MM.1R, 96 h
NCI-H929 [7] = test: Antiproliferative activity against human NCI-H929 cells in culture medium with 10% lipid-reduced serum after 4 days by ATP-Glo assay; assay type: functional, cell-based; settings: NCI-H929, 96 h
MV4-11 [8] = test: Antiproliferative activity against human MV4-11 cells in culture medium with 10% lipid-reduced serum after 4 days by ATP-Glo assay; assay type: functional, cell-based; settings: MV4-11, 96 h
NCI-H460 [9] = test: Antiproliferative activity against human NCI-H460 cells in culture medium with 10% lipid-reduced serum after 4 days by ATP-Glo assay; assay type: functional, cell-based; settings: NCI-H460, 96 h
HT-29 = test: Antiproliferative activity against human HT-29 cells in culture medium with 10% lipid-reduced serum after 4 days by ATP-Glo assay; assay type: functional, cell-based; settings: HT-29, 96 h
A549 [10] = test: Antiproliferative activity against human A549 cells in culture medium with 10% lipid-reduced serum after 4 days by ATP-Glo assay; assay type: functional, cell-based; settings: A549, 96 h
[11] = Antiproliferative activity against human LL cells in culture medium with 10% lipid-reduced serum after 4 days by ATP-Glo assay; assay type: functional, cell-based; settings: 96 h
MDA-MB-468 [12] = test: Antiproliferative activity against human MDA-MB-468 cells in culture medium with 10% lipid-reduced serum after 4 days by ATP-Glo assay; assay type: functional, cell-based; settings: MDA-MB-468, 96 h
A2780 [13] = test: Antiproliferative activity against human A2780 cells in culture medium with 10% lipid-reduced serum after 4 days in presence of palmitate by MTT assay; assay type: functional, cell-based; settings: A2780, 96 h
K562 [14] = test: Antiproliferative activity against human K562 cells in culture medium with 10% lipid-reduced serum after 4 days in presence of palmitate by ATP-Glo assay; assay type: functional, cell-based; settings: K562, 96 h
OCI-Ly1 [15] = test: Antiproliferative activity against human OCI-LY1 cells in culture medium with 10% lipid-reduced serum after 4 days in presence of palmitate by ATP-Glo assay; assay type: functional, cell-based; settings: OCI-Ly1, 96 h
HL-60 [16] = test: Antiproliferative activity against human HL60 cells in culture medium with 10% lipid-reduced serum after 4 days in presence of palmitate by ATP-Glo assay; assay type: functional, cell-based; settings: HL-60, 96 h
U2932 [17] = test: Antiproliferative activity against human U2932 cells in culture medium with 10% lipid-reduced serum after 4 days in presence of palmitate by ATP-Glo assay; assay type: functional, cell-based; settings: U2932, 96 h
[18] = Antiproliferative activity against human MM1R cells in culture medium with 10% lipid-reduced serum after 4 days in presence of palmitate by ATP-Glo assay; assay type: functional, cell-based; settings: MM.1R, 96 h
U-266 = test: Antiproliferative activity against human U266 cells in culture medium with 10% lipid-reduced serum after 4 days in presence of palmitate by ATP-Glo assay; assay type: functional, cell-based; settings: U-266, 96 h
NCI-H929 [19] = test: Antiproliferative activity against human NCI-H929 cells in culture medium with 10% lipid-reduced serum after 4 days in presence of palmitate by ATP-Glo assay; assay type: functional, cell-based; settings: NCI-H929, 96 h
MV4-11 [20] = test: Antiproliferative activity against human MV4-11 cells in culture medium with 10% lipid-reduced serum after 4 days in presence of palmitate by ATP-Glo assay; assay type: functional, cell-based; settings: MV4-11, 96 h
NCI-H460 [21] = test: Antiproliferative activity against human NCI-H460 cells in culture medium with 10% lipid-reduced serum after 4 days in presence of palmitate by ATP-Glo assay; assay type: functional, cell-based; settings: NCI-H460, 96 h
BT-20 = test: Antiproliferative activity against human BT20 cells in culture medium with 10% lipid-reduced serum after 4 days in presence of palmitate by ATP-Glo assay; assay type: functional, cell-based; settings: BT-20, 96 h
A549 [22] = test: Antiproliferative activity against human A549 cells in culture medium with 10% lipid-reduced serum after 4 days in presence of palmitate by ATP-Glo assay; assay type: functional, cell-based; settings: A549, 96 h
[23] = Antiproliferative activity against human LL cells in culture medium with 10% lipid-reduced serum after 4 days in presence of palmitate by ATP-Glo assay; assay type: functional, cell-based; settings: 96 h
MDA-MB-468 [24] = test: Antiproliferative activity against human MDA-MB-468 cells in culture medium with 10% lipid-reduced serum after 4 days in presence of palmitate by ATP-Glo assay; assay type: functional, cell-based; settings: MDA-MB-468, 96 h
LP-1 = test: Antiproliferative activity against human LP-1 cells in culture medium with 10% lipid-reduced serum after 4 days in presence of palmitate by ATP-Glo assay; assay type: functional, cell-based; settings: LP-1, 96 h
Cytochrome P450 1A2 = Cytochrome P450 1A2 (Homo sapiens, UniProt P05177); test: Inhibition human CYP1A2; assay type: ADME
Sequence of Cytochrome P450 1A2 (P05177 whole entry): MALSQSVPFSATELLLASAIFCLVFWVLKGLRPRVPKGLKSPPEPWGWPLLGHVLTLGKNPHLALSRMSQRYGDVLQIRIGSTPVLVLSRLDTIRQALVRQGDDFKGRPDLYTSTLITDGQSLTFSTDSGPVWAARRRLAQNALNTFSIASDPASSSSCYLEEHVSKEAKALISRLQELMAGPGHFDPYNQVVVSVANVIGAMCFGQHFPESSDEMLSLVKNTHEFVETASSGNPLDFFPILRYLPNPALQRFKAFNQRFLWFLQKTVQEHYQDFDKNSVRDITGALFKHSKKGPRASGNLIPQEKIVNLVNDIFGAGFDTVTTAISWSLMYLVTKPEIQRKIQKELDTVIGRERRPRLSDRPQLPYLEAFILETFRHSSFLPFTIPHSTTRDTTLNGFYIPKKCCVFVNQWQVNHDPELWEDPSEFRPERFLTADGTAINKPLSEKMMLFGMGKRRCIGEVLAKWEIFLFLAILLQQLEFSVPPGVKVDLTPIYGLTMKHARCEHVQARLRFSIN

Cytochrome P450 2C8 = Cytochrome P450 2C8 (Homo sapiens, UniProt P10632); test: Inhibition of human CYP2C8; assay type: ADME
Sequence of Cytochrome P450 2C8 (P10632 whole entry): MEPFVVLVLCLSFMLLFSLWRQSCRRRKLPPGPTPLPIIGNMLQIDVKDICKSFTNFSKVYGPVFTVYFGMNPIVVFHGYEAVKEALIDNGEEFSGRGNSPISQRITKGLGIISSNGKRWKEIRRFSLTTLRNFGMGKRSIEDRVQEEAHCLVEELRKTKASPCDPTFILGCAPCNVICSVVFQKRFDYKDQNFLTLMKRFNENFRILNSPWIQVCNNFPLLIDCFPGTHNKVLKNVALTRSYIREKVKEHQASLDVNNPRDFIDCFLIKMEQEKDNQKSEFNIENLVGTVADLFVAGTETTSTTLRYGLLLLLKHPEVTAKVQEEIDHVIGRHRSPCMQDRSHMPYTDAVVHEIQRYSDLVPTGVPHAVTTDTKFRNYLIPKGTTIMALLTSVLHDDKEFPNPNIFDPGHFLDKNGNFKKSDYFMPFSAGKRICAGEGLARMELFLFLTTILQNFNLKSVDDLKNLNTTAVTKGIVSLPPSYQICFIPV

Cytochrome P450 2C19 = Cytochrome P450 2C19 (Homo sapiens, UniProt P33261); test: Inhibition of human CYP2C19; assay type: ADME
Sequence of Cytochrome P450 2C19 (P33261 whole entry): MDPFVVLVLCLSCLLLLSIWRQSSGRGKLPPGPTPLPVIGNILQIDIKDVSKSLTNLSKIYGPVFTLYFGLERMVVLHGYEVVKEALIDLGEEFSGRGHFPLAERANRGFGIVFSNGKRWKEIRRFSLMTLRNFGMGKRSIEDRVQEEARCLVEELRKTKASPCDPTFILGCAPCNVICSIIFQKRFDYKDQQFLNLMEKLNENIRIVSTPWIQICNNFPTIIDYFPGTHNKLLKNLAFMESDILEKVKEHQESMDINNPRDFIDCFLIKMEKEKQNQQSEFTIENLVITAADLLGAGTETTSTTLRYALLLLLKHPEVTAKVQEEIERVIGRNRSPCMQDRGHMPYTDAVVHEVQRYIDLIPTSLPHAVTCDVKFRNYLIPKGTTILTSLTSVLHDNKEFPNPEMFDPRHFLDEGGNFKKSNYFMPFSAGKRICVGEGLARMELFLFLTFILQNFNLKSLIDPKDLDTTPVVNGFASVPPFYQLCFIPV

Cytochrome P450 2D6 = Cytochrome P450 2D6 (Homo sapiens, UniProt P10635); test: Inhibition of human CYP2D6; assay type: ADME
Sequence of Cytochrome P450 2D6 (P10635 whole entry): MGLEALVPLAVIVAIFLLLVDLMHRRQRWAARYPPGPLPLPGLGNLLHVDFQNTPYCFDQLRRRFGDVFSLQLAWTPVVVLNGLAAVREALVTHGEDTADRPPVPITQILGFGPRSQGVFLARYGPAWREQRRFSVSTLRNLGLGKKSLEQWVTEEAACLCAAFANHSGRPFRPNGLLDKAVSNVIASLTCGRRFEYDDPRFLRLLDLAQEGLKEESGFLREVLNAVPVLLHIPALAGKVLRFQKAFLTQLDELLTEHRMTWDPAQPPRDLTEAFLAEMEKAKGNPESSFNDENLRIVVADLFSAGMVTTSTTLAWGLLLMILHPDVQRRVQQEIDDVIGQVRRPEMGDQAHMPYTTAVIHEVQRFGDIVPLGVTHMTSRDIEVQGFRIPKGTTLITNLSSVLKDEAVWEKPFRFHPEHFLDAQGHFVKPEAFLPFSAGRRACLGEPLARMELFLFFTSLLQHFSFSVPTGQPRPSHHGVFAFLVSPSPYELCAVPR

Cytochrome P450 3A4 = Cytochrome P450 3A4 (Homo sapiens, UniProt P08684); test: Inhibition of human CYP3A4; assay type: ADME
Cytochrome P450 2C9 = Cytochrome P450 2C9 (Homo sapiens, UniProt P11712); test: Inhibition of human CYP2C9; assay type: ADME
Sequence of Cytochrome P450 2C9 (P11712 whole entry): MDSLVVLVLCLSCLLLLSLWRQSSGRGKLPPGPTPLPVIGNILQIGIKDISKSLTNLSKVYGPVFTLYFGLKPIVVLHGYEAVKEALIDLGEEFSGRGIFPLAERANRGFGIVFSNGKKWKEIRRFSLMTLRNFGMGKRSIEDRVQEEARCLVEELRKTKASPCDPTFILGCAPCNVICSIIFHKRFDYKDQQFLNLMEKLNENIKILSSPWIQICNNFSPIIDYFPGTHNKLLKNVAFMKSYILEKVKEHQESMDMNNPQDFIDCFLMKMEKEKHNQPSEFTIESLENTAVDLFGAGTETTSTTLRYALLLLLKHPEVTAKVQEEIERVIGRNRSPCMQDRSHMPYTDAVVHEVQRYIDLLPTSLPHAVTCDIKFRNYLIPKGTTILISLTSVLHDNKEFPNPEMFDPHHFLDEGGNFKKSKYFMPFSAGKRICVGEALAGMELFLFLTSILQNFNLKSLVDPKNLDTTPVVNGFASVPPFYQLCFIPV

[25] = Stability in mouse microsomes; assay type: ADME, Microsome
[26] = Permeability in human Caco2 cells; assay type: ADME, cell-based; settings: Caco-2, read-out: permeability
[27] = Stability in mouse plasma; assay type: ADME, cell-free
[28] = Protein binding in human plasma; assay type: ADME, cell-free; settings: read-out: PPB (converted)
[29] = Protein binding in mouse plasma; assay type: ADME, cell-free; settings: read-out: PPB (converted)
[30] = Tmax in mouse at 10 mg/kg, po; assay type: ADME, organism-based; settings: in vivo
[31] = Half life in mouse at 10 mg/kg, po; assay type: ADME, organism-based; settings: in vivo
[32] = Cmax in mouse at 10 mg/kg, po; assay type: ADME, organism-based; set-up: dose 10 mg/kg, route oral; settings: in vivo
[33] = AUC in mouse at 10 mg/kg, po; assay type: ADME, organism-based; settings: in vivo
[34] = Oral bioavailability in mouse at 10 mg/kg; assay type: ADME, organism-based; settings: in vivo
Fatty acid synthase = Fatty acid synthase (Homo sapiens, UniProt P49327)
Sequence of Fatty acid synthase (P49327 whole entry): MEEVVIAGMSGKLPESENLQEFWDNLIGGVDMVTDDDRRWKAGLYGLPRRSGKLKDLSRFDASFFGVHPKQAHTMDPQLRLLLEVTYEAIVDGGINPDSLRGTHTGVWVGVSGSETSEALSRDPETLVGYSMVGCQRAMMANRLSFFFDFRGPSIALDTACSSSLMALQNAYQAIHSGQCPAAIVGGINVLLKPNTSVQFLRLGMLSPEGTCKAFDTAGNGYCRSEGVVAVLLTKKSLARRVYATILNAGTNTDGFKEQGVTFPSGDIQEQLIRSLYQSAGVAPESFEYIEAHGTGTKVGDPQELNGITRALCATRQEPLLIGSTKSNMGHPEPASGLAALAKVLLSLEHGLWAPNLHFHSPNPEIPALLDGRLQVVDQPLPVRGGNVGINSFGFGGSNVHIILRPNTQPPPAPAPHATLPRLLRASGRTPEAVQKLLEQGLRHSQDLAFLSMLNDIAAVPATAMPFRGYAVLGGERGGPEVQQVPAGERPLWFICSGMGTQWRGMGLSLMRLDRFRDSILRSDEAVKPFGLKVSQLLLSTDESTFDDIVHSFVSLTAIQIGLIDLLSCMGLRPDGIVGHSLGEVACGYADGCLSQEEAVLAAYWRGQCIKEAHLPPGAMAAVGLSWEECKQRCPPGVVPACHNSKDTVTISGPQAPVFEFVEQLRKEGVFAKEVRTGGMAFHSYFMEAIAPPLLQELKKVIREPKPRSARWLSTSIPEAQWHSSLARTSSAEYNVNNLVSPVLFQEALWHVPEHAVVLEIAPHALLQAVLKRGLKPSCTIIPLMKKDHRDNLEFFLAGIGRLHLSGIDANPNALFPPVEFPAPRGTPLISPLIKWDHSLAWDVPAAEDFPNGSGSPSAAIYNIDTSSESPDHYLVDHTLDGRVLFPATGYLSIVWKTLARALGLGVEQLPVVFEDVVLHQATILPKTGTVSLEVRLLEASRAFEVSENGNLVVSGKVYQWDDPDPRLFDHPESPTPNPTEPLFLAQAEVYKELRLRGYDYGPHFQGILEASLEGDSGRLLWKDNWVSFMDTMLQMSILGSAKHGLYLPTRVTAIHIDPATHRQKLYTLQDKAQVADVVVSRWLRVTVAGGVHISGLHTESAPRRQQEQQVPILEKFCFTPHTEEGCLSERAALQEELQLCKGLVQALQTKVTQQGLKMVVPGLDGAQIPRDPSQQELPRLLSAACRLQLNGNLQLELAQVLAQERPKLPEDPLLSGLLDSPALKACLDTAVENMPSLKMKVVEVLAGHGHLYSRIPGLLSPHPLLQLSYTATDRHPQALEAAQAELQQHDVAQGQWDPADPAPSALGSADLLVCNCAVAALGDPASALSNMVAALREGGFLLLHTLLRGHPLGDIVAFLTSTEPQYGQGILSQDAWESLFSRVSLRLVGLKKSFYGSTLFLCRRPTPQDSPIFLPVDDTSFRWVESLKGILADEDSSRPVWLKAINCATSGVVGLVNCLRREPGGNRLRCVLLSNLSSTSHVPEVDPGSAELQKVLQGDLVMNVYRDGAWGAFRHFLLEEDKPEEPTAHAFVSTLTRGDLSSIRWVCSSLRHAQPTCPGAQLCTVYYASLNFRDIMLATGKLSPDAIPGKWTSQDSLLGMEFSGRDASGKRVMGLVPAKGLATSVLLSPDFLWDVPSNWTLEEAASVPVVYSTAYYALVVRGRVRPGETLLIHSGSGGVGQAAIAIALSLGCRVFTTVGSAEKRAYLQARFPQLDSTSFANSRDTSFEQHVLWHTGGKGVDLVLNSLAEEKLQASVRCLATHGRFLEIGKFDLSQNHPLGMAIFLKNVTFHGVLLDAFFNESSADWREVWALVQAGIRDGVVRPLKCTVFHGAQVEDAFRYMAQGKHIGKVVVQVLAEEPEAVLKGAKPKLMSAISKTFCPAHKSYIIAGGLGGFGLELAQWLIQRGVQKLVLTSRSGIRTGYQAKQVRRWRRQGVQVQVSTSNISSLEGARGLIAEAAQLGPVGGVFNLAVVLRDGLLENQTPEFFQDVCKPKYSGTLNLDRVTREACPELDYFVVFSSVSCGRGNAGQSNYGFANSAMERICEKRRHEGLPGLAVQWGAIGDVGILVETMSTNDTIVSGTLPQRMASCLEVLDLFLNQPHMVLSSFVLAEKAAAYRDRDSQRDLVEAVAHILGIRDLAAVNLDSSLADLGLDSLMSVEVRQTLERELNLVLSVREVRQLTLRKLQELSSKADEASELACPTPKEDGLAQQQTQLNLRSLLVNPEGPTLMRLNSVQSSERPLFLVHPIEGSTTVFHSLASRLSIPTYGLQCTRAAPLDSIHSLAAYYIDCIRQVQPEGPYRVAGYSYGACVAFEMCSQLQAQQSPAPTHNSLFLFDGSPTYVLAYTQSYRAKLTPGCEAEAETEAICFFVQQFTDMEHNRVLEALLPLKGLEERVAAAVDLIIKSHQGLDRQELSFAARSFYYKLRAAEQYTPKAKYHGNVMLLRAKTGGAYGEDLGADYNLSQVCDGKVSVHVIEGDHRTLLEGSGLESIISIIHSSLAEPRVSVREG
Description: Inhibition of human full length FASN using [3H]-acetyl-CoA/malonyl-CoA as substrate after 60 mins in presence of NADPH by scintillation proximity assay

Structure (SMILES): Cn1cc(-c2ccc(-c3ccc(C4=NC5(CC5)C(=O)N4C[C@@H]4CCN(C(=O)C5CC5)C4)cc3)cc2)cn1
- EC50 (A2780 [1]): 13 nM
- EC50 (K562 [2]): 110 nM
- EC50 (PC-3M): 25 nM
- EC50 (LNCaP): 66 nM
- EC50 (OCI-Ly1 [3]): 55 nM
- EC50 (HL-60 [4]): 120 nM
- EC50 (U2932 [5]): 190 nM
- EC50 [6]: 170 nM
- EC50 (NCI-H929 [7]): 3.72 µM
- EC50 (MV4-11 [8]): 59 nM
- EC50 (NCI-H460 [9]): 36 nM
- EC50 (HT-29): 7.94 µM
- EC50 (A549 [10]): 20 nM
- EC50 [11]: 590 nM
- EC50 (MDA-MB-468 [12]): 26 nM
- EC50 (A2780 [13]): > 10 µM
- EC50 (K562 [14]): 9.33 µM
- EC50 (OCI-Ly1 [15]): 6.76 µM
- EC50 (HL-60 [16]): 6.31 µM
- EC50 (U2932 [17]): 3.02 µM
- EC50 [18]: > 10 µM
- EC50 (U-266): > 10 µM
- EC50 (NCI-H929 [19]): > 10 µM
- EC50 (MV4-11 [20]): > 10 µM
- EC50 (NCI-H460 [21]): > 10 µM
- EC50 (BT-20): > 10 µM
- EC50 (A549 [22]): > 10 µM
- EC50 [23]: 9.33 µM
- EC50 (MDA-MB-468 [24]): > 10 µM
- EC50 (LP-1): > 10 µM
- IC50 (Cytochrome P450 1A2): > 10 µM
- IC50 (Cytochrome P450 2C8): > 10 µM
- IC50 (Cytochrome P450 2C19): > 10 µM
- IC50 (Cytochrome P450 2D6): > 10 µM
- IC50 (Cytochrome P450 3A4): > 10 µM
- IC50 (Cytochrome P450 2C9): 7.9 µM
- Stability [25]: Stable
- Papp [26]: 7.1 ×10⁻⁶ cm/s
- Stability [27]: Stable
- fraction unbound [28]: 0.059
- fraction unbound [29]: 0.034
- Tmax [30]: 2 h
- half-life [31]: 150 min
- Cmax [32]: 2030 ng/mL
- AUC [33]: 11100 ng·h/mL
- bioavailability [34]: 60.6%

Structure (SMILES): O=C([C@H]1CCCO1)N1CC[C@@H](CN2C(=O)C3(CC3)N=C2c2ccc(-c3ccc4occc4c3)cc2)C1
- IC50 (Fatty acid synthase): 300 nM

Structure (SMILES): O=C(N1CC[C@@H](CN2C(=O)C3(CC3)N=C2c2ccc(-c3ccc4occc4c3)cc2)C1)C1(O)CC1
- IC50 (Fatty acid synthase): 36 nM

Structure (SMILES): O=C(CC(F)(F)F)N1CC[C@@H](CN2C(=O)C3(CC3)N=C2c2ccc(-c3ccc4occc4c3)cc2)C1
- IC50 (Fatty acid synthase): 170 nM

Structure (SMILES): O=C(C1CC1)N1CC[C@@H](CN2C(=O)C3(CC3)N=C2c2ccc(-c3ccc(-c4ccncc4)cc3)cc2)C1
- IC50 (Fatty acid synthase): 23 nM

Structure (SMILES): Cn1ccc(C(=O)N2CC[C@@H](CN3C(=O)C4(CC4)N=C3c3ccc(-c4ccc5occc5c4)cc3)C2)n1
- IC50 (Fatty acid synthase): 450 nM

Structure (SMILES): CC1(C(=O)N2CC[C@@H](CN3C(=O)C4(CC4)N=C3c3ccc(-c4ccc5occc5c4)cc3)C2)CC1
- IC50 (Fatty acid synthase): 28 nM

Structure (SMILES): Cn1ncc2cc(-c3cnc(C4=NC5(CC5)C(=O)N4C[C@@H]4CCN(C(=O)C5CC5)C4)nc3)ccc21
- IC50 (Fatty acid synthase): 33100 nM

Structure (SMILES): O=C([C@@H]1CCCO1)N1CC[C@@H](CN2C(=O)C3(CC3)N=C2c2ccc(-c3ccc4occc4c3)cc2)C1
- IC50 (Fatty acid synthase): 79 nM

Structure (SMILES): N#CC1(C(=O)N2CC[C@@H](CN3C(=O)C4(CC4)N=C3c3ccc(-c4ccc5occc5c4)cc3)C2)CC1
- IC50 (Fatty acid synthase): 590 nM
